Assay results taken from patent US6548495B2, “Dihydro-benzo [B] [1,4] diazepin-2-one derivatives” (Hoffmann-La Roche Inc., priority 2002, dated 2003).

Row | SMILES | melting point
1 | Cc1cc(-c2cccc(C3=Nc4cc(N5CCOCC5)c(C(F)(F)F)cc4NC(=O)C3)c2)on1 [Example 3, 4-[3-(3-Methyl-isoxazol-5-yl)-phenyl]-7-morpholin-4-yl-8-trifluoromethyl-1,3-dihydro-benzo[b][1,4]diazepin-2-one] | 170 °C
2 | N#Cc1cccc(C2=Nc3ccc(-n4cc(C#N)c(-c5ccccc5Cl)c4)cc3NC(=O)C2)c1 [Example 5, 4-(2-Chloro-phenyl)-1-[2-(3-cyano-phenyl)-4-oxo-4,5-dihydro-3H-benzo[b][1,4]diazepin-7-yl]-1H-pyrrole-3-carbonitrile] | 252 °C (dec.)
3 | N#Cc1cccc(C2=Nc3ccc(-n4cc(C#N)c(-c5ccccc5)c4)cc3NC(=O)C2)c1 [Example 6, 1-[2-(3-Cyano-phenyl)-4-oxo-4,5-dihydro-3H-benzo[b][1,4]diazepin-7-yl]-4-phenyl-1H-pyrrole-3-carbonitrile] | 274 °C (dec.)
4 | O=C1CC(c2cccc(I)c2)=Nc2ccc(-n3cccc3)cc2N1 [Example 7, 4-(3-Iodo-phenyl)-8-pyrrol-1-yl-1,3-dihydro-benzo[b][1,4]diazepin-2-one] | 215 to 217 °C (dec.)
5 | NC(=O)c1cccc(C2=Nc3ccc(-n4cccc4)cc3NC(=O)C2)c1 [Example 8, 3-(4-oxo-7-Pyrrol-1-yl-4,5-dihydro-3H-benzo[b][1,4]diazepin-2-yl)-benzamide] | 238 to 239 °C (dec.)
6 | COCCOc1cc2c(cc1-n1cccc1)NC(=O)CC(c1cccc(C#N)c1)=N2 [Example 10, 3-[8-(2-Methoxy-ethoxy)-4-oxo-7-pyrrol-1-yl-4,5-dihydro-3H-benzo[b][1,4]diazepin-2-yl]-benzonitrile] | 189 to 195 °C
7 | COC(=O)c1cccn1-c1ccc2c(c1)NC(=O)CC(c1cccc(C#N)c1)=N2 [Example 15, 1-[2-(3-Cyano-phenyl)-4-oxo-4,5-dihydro-3H-benzo[b][1,4]diazepin-7-yl]-1H-pyrrole-2-carboxylic Acid Methyl Ester] | > 207 °C (dec.)
8 | CCOC(=O)c1csc(-c2cccc(C3=Nc4ccc(-n5cccc5)cc4NC(=O)C3)c2)n1 [Example 19, 2-[3-(4-oxo-7-Pyrrol-1-yl-4,5-dihydro-3H-benzo[b][1,4]diazepin-2-yl)-phenyl]-thiazole-4-carboxylic Acid Ethyl Ester] | 198 to 201 °C
9 | O=C1CC(c2cccc(-c3ocnc3C(=O)NCCO)c2)=Nc2ccc(-n3cccc3)cc2N1 [Example 24, 5-[3-(4-oxo-7-Pyrrol-1-yl-4,5-dihydro-3H-benzo[b][1,4]diazepin-2-yl)-phenyl]-oxazole-4-carboxylic Acid (2-Hydroxy-ethyl)-amide] | 228 to 230 °C
10 | O=C1CC(c2cccc(-c3nc(CO)co3)c2)=Nc2ccc(-n3cccc3)cc2N1 [Example 26, 4-[3-(4-Hydroxymethyl-oxazol-2-yl)-phenyl]-8-pyrrol-1-yl-1,3-dihydro-benzo[b][1,4]diazepin-2-one] | 240 to 242 °C
11 | CCOC(=O)c1nc(-c2cccc(C3=Nc4ccc(-n5cccc5)cc4NC(=O)C3)c2)cs1 [Example 28, 4-[3-(4-oxo-7-Pyrrol-1-yl-4,5-dihydro-3H-benzo[b][1,4]diazepin-2-yl)-phenyl]-thiazole-2-carboxylic Acid Ethyl Ester] | 213 to 215 °C
12 | Cc1cc(-c2cccc(C3=Nc4ccc(-n5cccc5)cc4NC(=O)C3)c2)on1 [Example 29, 4-[3-(3-Methyl-isoxazol-5-yl)-phenyl]-8-pyrrol-1-yl-1,3-dihydro-benzo[b][1,4]diazepin-2-one] | 248 to 250 °C
13 | NC(=O)c1nc(-c2cccc(C3=Nc4ccc(-n5cccc5)cc4NC(=O)C3)c2)cs1 [Example 30, 4-[3-(4-oxo-7-Pyrrol-1-yl-4,5-dihydro-3H-benzo[b][1,4]diazepin-2-yl)-phenyl]-thiazole-2-carboxylic Acid Amide] | 267 to 269 °C
14 | O=C1CC(c2cccc(-c3csc(C(=O)NCCO)n3)c2)=Nc2ccc(-n3cccc3)cc2N1 [Example 32, 4-[3-(4-oxo-7-Pyrrol-1-yl-4,5-dihydro-3H-benzo[b][1,4]diazepin-2-yl)-phenyl]-thiazole-2-carboxylic Acid (2-Hydroxy-ethyl)-amide] | 236 to 238 °C
15 | O=C1CC(c2cccc(-c3csc(CO)n3)c2)=Nc2ccc(-n3cccc3)cc2N1 [Example 33, 4-[3-(2-Hydroxymethyl-thiazol-4-yl)-phenyl]-8-pyrrol-1-yl-1,3-dihydro-benzo[b][1,4]diazepin-2-one] | 185 to 190 °C (dec.)
16 | N#CCc1cc2c(cc1I)NC(=O)CC(c1cccc(-n3ccnc3)c1)=N2 [Example 37, [4-(3-Imidazol-1-yl-phenyl)-8-iodo-2-oxo-2,3-dihydro-1H-benzo[b][1,4]diazepin-7-yl]-acetonitrile] | 243 to 245 °C
17 | O=C1CC(c2cccc(-c3cc(CO)no3)c2)=Nc2cc(N3CCOCC3)c(C(F)(F)F)cc2N1 [Example 39, 4-[3-(3-Hydroxymethyl-isoxazol-5-yl)-phenyl]-7-morpholin-4-yl-8-trifluoromethyl-1,3-dihydro-benzo[b][1,4]diazepin-2-one] | 196 °C

Further lines, results first:

Row | melting point | SMILES
18 | 180 °C | CN(C)Cc1cnnn1-c1cccc(C2=Nc3cc(N4CCOCC4)c(C(F)(F)F)cc3NC(=O)C2)c1 [Example 40, 4-[3-(5-Dimethylaminomethyl-[1,2,3]triazol-1-yl)-phenyl]-7-morpholin-4-yl-8-trifluoromethyl-1,3-dihydro-benzo[b][1,4]diazepin-2-one]
19 | 230 to 233 °C | Cc1cc(-c2cccc(C3=Nc4cc(N5CCSCC5)c(C(F)(F)F)cc4NC(=O)C3)c2)on1 [Example 41, 4-[3-(3-Methyl-isoxazol-5-yl)-phenyl]-7-thiomorpholin-4-yl-8-trifluoromethyl-1,3-dihydro-benzo[b][1,4]diazepin-2-one]
20 | 227 °C | COc1cc2c(cc1C(F)(F)F)NC(=O)CC(c1ccnc(C#N)c1)=N2 [Example 44, 4-(8-Methoxy-4-oxo-7-trifluoromethyl-4,5-dihydro-3H-benzo[b][1,4]diazepin-2-yl)-pyridine-2-carbonitrile]
21 | 225 °C | COc1cc2c(cc1C(F)(F)F)NC(=O)CC(c1cccc(-c3cc(C)no3)c1)=N2 [Example 45, 7-Methoxy-4-[3-(3-methyl-isoxazol-5-yl)-phenyl]-8-trifluoromethyl-1,3-dihydro-benzo[b][1,4]diazepin-2-one]
22 | 166 °C | O=C1CC(c2cccc(-n3cccn3)c2)=Nc2cc(N3CCOCC3)c(C(F)(F)F)cc2N1 [Example 49, 7-Morpholin-4-yl-4-(3-pyrazol-1-yl-phenyl)-8-trifluoromethyl-1,3-dihydro-benzo[b][1,4]diazepin-2-one]
23 | 233 to 236 °C | O=C1CC(c2cccc(-n3cnnc3)c2)=Nc2cc(N3CCOCC3)c(C(F)(F)F)cc2N1 [Example 50, 7-Morpholin-4-yl-4-(3-[1,2,4]triazol-4-yl-phenyl)-8-trifluoromethyl-1,3-dihydro-benzo[b][1,4]diazepin-2-one]
24 | 197 to 199 °C | O=C1CC(c2cccc(-n3nncc3CO)c2)=Nc2cc(F)c(C(F)(F)F)cc2N1 [Example 51, 7-Fluoro-4-[3-(5-hydroxymethyl-[1,2,3]triazol-1-yl)-phenyl]-8-trifluoromethyl-1,3-dihydro-benzo[b][1,4]diazepin-2-one]
25 | 80 °C | CCOc1cc2c(cc1C(F)(F)F)NC(=O)CC(c1cccc(-n3nncc3CNC3CC3)c1)=N2 [Example 54, 4-[3-(5-Cyclopropylaminomethyl-[1,2,3]triazol-1-yl)-phenyl]-7-ethoxy-8-trifluoromethyl-1,3-dihydro-benzo[b][1,4]diazepin-2-one]
26 | 215 °C | CCOc1cc2c(cc1C(F)(F)F)NC(=O)CC(c1cccc(-n3ccnn3)c1)=N2 [Example 56, 7-Ethoxy-4-(3-[1,2,3]triazol-1-yl-phenyl)-8-trifluoromethyl-1,3-dihydro-benzo[b][1,4]diazepin-2-one]
27 | 259 °C | N#Cc1cccc(C2=Nc3cc(N4CCOCC4)c(C#N)cc3NC(=O)C2)c1 [Example 59, 2-(3-Cyano-phenyl)-8-morpholin-4-yl-4-oxo-4,5-dihydro-3H-benzo[b][1,4]diazepine-7-carbonitrile]
28 | 180 °C | N#Cc1cc2c(cc1N1CCOCC1)N=C(c1cccc(-n3nncc3CO)c1)CC(=O)N2 [Example 60, 2-[3-(5-Hydroxymethyl-[1,2,3]triazol-1-yl)-phenyl]-8-morpholin-4-yl-4-oxo-4,5-dihydro-3H-benzo[b][1,4]diazepine-7-carbonitrile]
29 | 252 °C | Cc1cc(-c2cccc(C3=Nc4cc(N5CCOCC5)c(C#N)cc4NC(=O)C3)c2)on1 [Example 61, 2-[3-(3-Methyl-isoxazol-5-yl)-phenyl]-8-morpholin-4-yl-4-oxo-4,5-dihydro-3H-benzo[b][1,4]diazepine-7-carbonitrile]
30 | 198 °C | O=C1CC(c2cccc(-n3nncc3CO)c2)=Nc2cc(Cl)c(C(F)(F)F)cc2N1 [Example 63, 7-Chloro-4-[3-(5-hydroxymethyl-[1,2,3]triazol-1-yl)-phenyl]-8-trifluoromethyl-1,3-dihydro-benzo[b][1,4]diazepin-2-one]
31 | 212 °C | O=C1CC(c2cccc(-n3ncnc3CO)c2)=Nc2cc(Cl)c(C(F)(F)F)cc2N1 [Example 64, 7-Chloro-4-[3-(5-hydroxymethyl-[1,2,4]triazol-1-yl)-phenyl]-8-trifluoromethyl-1,3-dihydro-benzo[b][1,4]diazepin-2-one]
32 | 252 °C | Cc1cc(-c2cccc(C3=Nc4cc(Cl)c(C(F)(F)F)cc4NC(=O)C3)c2)on1 [Example 65, 7-Chloro-4-[3-(3-methyl-isoxazol-5-yl)-phenyl]-8-trifluoromethyl-1,3-dihydro-benzo[b][1,4]diazepin-2-one]
33 | 191 °C | O=C1CC(c2cccc(-n3ncnc3CNC3CC3)c2)=Nc2cc(Cl)c(C(F)(F)F)cc2N1 [Example 66, 7-Chloro-4-[3-(5-cyclopropylaminomethyl-[1,2,4]triazol-1-yl)-phenyl]-8-trifluoromethyl-1,3-dihydro-benzo[b][1,4]diazepin-2-one]
